Patent US20040127403A1, “Methods for treating and preventing Gram-positive bacteremias” (priority 2002, published 2004)
Values joined by “and” are separate entries in the source; they are usually repeats but may differ in a detail not shown here. Equal entries are not always repeated.

Tests used:
Assay in all cases: MIC, NCCLS broth microdilution
Type in all cases: cell-based
S. aureus ATCC27659 MSSA = system: S. aureus ATCC27659 MSSA
Description: (§1) The efficacy of ramoplanin was tested against recently isolated VRE that are resistant to linezolid and quinupristin/dalfopristin. The culture media containing ramoplanin was supplemented with 0.02% bovine serum albumin (BSA) to prevent ramoplanin binding to the plastic. MIC values were determined in both cation-adjusted Mueller-Hinton broth (CAMHB) and trypticase soy broth (TSB) by the National Committee for Clinical Laboratory Standards (NCCLS) broth microdilution method. Macromolecular biosynthesis experiments were done by following the incorporation of carbon-14-labeled N-acetylglucosamine, acetic acid, amino acids, uridine, and thymidine into peptidoglycan, fatty acid, protein, RNA and DNA, respectively.

S. epidermidis ATCC14990 = conditions: S. epidermidis ATCC14990
Description: as §1

S. epidermidis ATCC12228 = conditions: S. epidermidis ATCC12228
Description: as §1

S. aureus ATCC19636 MSSA = system: S. aureus ATCC19636 MSSA
Description: as §1

E. faecium ATCC700221 = conditions: E. faecium ATCC700221
Description: as §1

E. faecalis A7789 Line-R = conditions: Table 6, 1st
Description: as §1

E. faecium UA210 = conditions: E. faecium UA210
Description: as §1

E. faecalis ATCC51299 = conditions: E. faecalis ATCC51299
Description: as §1

E. gallinarum UA604 = system: E. gallinarum UA604
Description: as §1

E. faecium A-5960 Line-R = conditions: Table 6, 2nd
Description: as §1

S. aureus ATCC43300 MRSA = system: S. aureus ATCC43300 MRSA
Description: as §1

E. faecium A2735 Syn-R = system: E. faecium A2735 Syn-R
Description: as §1

E. faecium A5959 Line-R = conditions: Table 6, 2nd
Description: as §1

E. faecium A6349 Line-R = system: E. faecium A6349 Line-R
Description: as §1

S. aureus ATCC12600 MRSA = system: S. aureus ATCC12600 MRSA
Description: as §1

E. faecium A6350 Line-R = system: E. faecium A6350 Line-R
Description: as §1

E. faecium 1836 = conditions: E. faecium 1836
Description: as §1

E. faecium A4192 Syn-R = system: E. faecium A4192 Syn-R
Description: as §1

E. faecium A6345 Line-R = conditions: for MIC: E. faecium A6345 Line-R
Description: as §1

[1] = system: S. aureus ATCC700699 MRSA/VISA; conditions: S. aureus ATCC700699 MRSA/VISA
Description: as §1

S. aureus ATCC27660 MSSA = system: S. aureus ATCC27660 MSSA
Description: as §1

S. aureus ATCC35556 MRSA = system: S. aureus ATCC35556 MRSA
Description: as §1

S. epidermidis ATCC35983 = conditions: S. epidermidis ATCC35983
Description: as §1

With Ramoplanin the MIC (S. aureus ATCC27659 MSSA; CAMHB) was 0.25, 0.25 μg/ml, the MIC (S. aureus ATCC27659 MSSA; TSB) was 0.25, 0.25 μg/ml and the MIC (S. aureus ATCC27659 MSSA; Table 6, 1st) was 1 µg/mL. The MIC (S. aureus ATCC27659 MSSA; Table 6, 2nd) was 0.25 µg/mL, the MIC (S. epidermidis ATCC14990; CAMHB) was 0.5, 0.5 μg/ml and the MIC (S. epidermidis ATCC14990; TSB) was 0.5, 0.5 μg/ml. For the same substance, the MIC (S. epidermidis ATCC14990; Table 6, 1st) was 0.5 µg/mL, the MIC (S. epidermidis ATCC14990; Table 6, 2nd) was 0.25 µg/mL and the MIC (S. epidermidis ATCC12228; CAMHB) was 0.5, 0.5 μg/ml. The MIC (S. epidermidis ATCC12228; TSB) was 1, 1 μg/ml, the MIC (S. epidermidis ATCC12228; Table 6, 1st) was 1 µg/mL and the MIC (S. epidermidis ATCC12228; Table 6, 2nd) was 0.25 µg/mL. The MIC (S. aureus ATCC19636 MSSA; CAMHB) was 0.5, 0.5 μg/ml, the MIC (S. aureus ATCC19636 MSSA; TSB) was 0.25, 0.25 μg/ml and the MIC (S. aureus ATCC19636 MSSA; Table 6, 1st) was 1 µg/mL. The MIC (S. aureus ATCC19636 MSSA; Table 6, 2nd) was 1 µg/mL, the MIC (E. faecium ATCC700221; CAMHB) was 0.25, 0.25 μg/ml and the MIC (E. faecium ATCC700221; TSB) was 0.5, 0.5 μg/ml. The MIC (E. faecium ATCC700221; Table 6, 1st) was 0.25 µg/mL, the MIC (E. faecium ATCC700221; Table 6, 2nd) was 0.25 µg/mL and the MIC (E. faecalis A7789 Line-R) was 0.06 µg/mL. The MIC (E. faecium UA210; CAMHB) was 0.125, 0.125 μg/ml, the MIC (E. faecium UA210; TSB) was 0.125, 0.125 μg/ml and the MIC (E. faecium UA210; Table 6, 1st) was 0.06 µg/mL. The MIC (E. faecium UA210; Table 6, 2nd) was 0.125 µg/mL, the MIC (E. faecalis ATCC51299; CAMHB) was 0.5, 0.5 μg/ml and the MIC (E. faecalis ATCC51299; TSB) was 0.5, 0.5 μg/ml. For the same substance, the MIC (E. faecalis ATCC51299; Table 6, 1st) was 0.25 µg/mL, the MIC (E. faecalis ATCC51299; Table 6, 2nd) was 0.5 µg/mL and the MIC (E. gallinarum UA604; CAMHB) was 0.125, 0.125 μg/ml. The MIC (E. gallinarum UA604; TSB) was 0.25, 0.25 μg/ml, the MIC (E. gallinarum UA604; Table 6, 1st) was 0.06 µg/mL and the MIC (E. gallinarum UA604; Table 6, 2nd) was 0.125 µg/mL. The MIC (E. faecium A-5960 Line-R) was 0.25 µg/mL, the MIC (S. aureus ATCC43300 MRSA; S. aureus ATCC43300 MRSA/VISA, Table 6, 1st) was 2 µg/mL and the MIC (S. aureus ATCC43300 MRSA; S. aureus ATCC43300 MRSA/VISA, Table 6, 2nd) was 0.25 µg/mL. The MIC (S. aureus ATCC43300 MRSA; S. aureus ATCC43300 MRSA, CAMHB) was 1, 1 μg/ml, the MIC (S. aureus ATCC43300 MRSA; S. aureus ATCC43300 MRSA, TSB) was 0.5, 0.5 μg/ml and the MIC (E. faecium A2735 Syn-R; CAMHB) was 0.25, 0.25 μg/ml. The MIC (E. faecium A2735 Syn-R; TSB) was 0.5, 0.5 μg/ml, the MIC (E. faecium A2735 Syn-R; Table 6, 1st) was 0.25 µg/mL and the MIC (E. faecium A2735 Syn-R; Table 6, 2nd) was 0.25 µg/mL. It also gave an MIC (E. faecium A5959 Line-R) of 0.25 µg/mL, an MIC (E. faecium A6349 Line-R; Table 6, 1st) of 0.125 µg/mL and an MIC (E. faecium A6349 Line-R; Table 6, 2nd) of 0.25 µg/mL. The MIC (S. aureus ATCC12600 MRSA; CAMHB) was 0.5, 0.5 μg/ml, the MIC (S. aureus ATCC12600 MRSA; TSB) was 0.5, 0.5 μg/ml and the MIC (S. aureus ATCC12600 MRSA; Table 6, 1st) was 1 µg/mL. The MIC (S. aureus ATCC12600 MRSA; Table 6, 2nd) was 0.5 µg/mL, the MIC (E. faecium A6350 Line-R; CAMHB) was 0.25, 0.25 μg/ml and the MIC (E. faecium A6350 Line-R; TSB) was 0.5, 0.5 μg/ml. The MIC (E. faecium A6350 Line-R; Table 6, 1st) was 0.25 µg/mL, the MIC (E. faecium A6350 Line-R; Table 6, 2nd) was 0.25 µg/mL and the MIC (E. faecium 1836; CAMHB) was 0.5, 0.5 μg/ml. For the same substance, the MIC (E. faecium 1836; TSB) was 0.5, 0.5 μg/ml, the MIC (E. faecium 1836; Table 6, 1st) was 0.25 µg/mL and the MIC (E. faecium 1836; Table 6, 2nd) was 0.5 µg/mL. For the same substance, the MIC (E. faecium A4192 Syn-R; CAMHB) was 0.25, 0.25 μg/ml, the MIC (E. faecium A4192 Syn-R; TSB) was 0.5, 0.5 μg/ml and the MIC (E. faecium A4192 Syn-R; Table 6, 1st) was 0.25 µg/mL. For the same substance, the MIC (E. faecium A4192 Syn-R; Table 6, 2nd) was 0.5 µg/mL, the “reference MIC for strains used for killing curve” value (E. faecium A6345 Line-R; E. faecium A6345 Line-R. as printed, second row of Table 3) was 0.25 µg/mL and the “reference MIC for strains used for killing curve” value (E. faecium A6345 Line-R; E. faecium A6345 Line-R., first row of Table 3) was 0.25 µg/mL. For the same substance, the MIC (E. faecium A6345 Line-R; CAMHB) was 0.125, 0.125 μg/ml, the MIC (E. faecium A6345 Line-R; TSB) was 0.25, 0.25 μg/ml and the MIC (E. faecium A6345 Line-R; Table 6, 1st) was 0.125 µg/mL. For the same substance, the MIC (E. faecium A6345 Line-R; Table 6, 2nd) was 0.25 µg/mL, the MIC ([1]; CAMHB) was 0.5 µg/mL and 0.25 µg/mL and the MIC ([1]; TSB) was 0.25, 0.25 μg/ml. For the same substance, the MIC ([1]; Table 6, 1st) was 1 µg/mL, the MIC ([1]; Table 6, 2nd) was 0.5 µg/mL and the MIC (S. aureus ATCC27660 MSSA; CAMHB) was 0.5 µg/mL and 1 µg/mL. For the same substance, the MIC (S. aureus ATCC27660 MSSA; TSB) was 0.25, 0.25 μg/ml, the MIC (S. aureus ATCC27660 MSSA; Table 6, 1st) was 2 µg/mL and the MIC (S. aureus ATCC27660 MSSA; Table 6, 2nd) was 1 µg/mL. The MIC (S. aureus ATCC35556 MRSA; CAMHB) was 0.5, 0.5 μg/ml, the MIC (S. aureus ATCC35556 MRSA; TSB) was 0.125, 0.125 μg/ml and the MIC (S. aureus ATCC35556 MRSA; Table 6, 1st) was 1 µg/mL. The MIC (S. aureus ATCC35556 MRSA; Table 6, 2nd) was 0.5 µg/mL, the MIC (S. epidermidis ATCC35983; CAMHB) was 0.5, 0.5 μg/ml and the MIC (S. epidermidis ATCC35983; TSB) was 2 µg/mL and 1 µg/mL. For the same substance, the MIC (S. epidermidis ATCC35983; Table 6, 2nd) was 0.5 µg/mL.
